# What was measured:
# [1] = target: T1, 5-LO (Rattus norvegicus, UniProt P12527); assay: Test c) in vivo zymosan-induced LTB4 liberation in rat air pouch; details: male rats, oral
# T1 construct: liberation of LTB4 induced by zymosan within an air pouch generated within the subcutaneous tissue of the back of male rats; from tissue
# T1 sequence (P12527 1-673): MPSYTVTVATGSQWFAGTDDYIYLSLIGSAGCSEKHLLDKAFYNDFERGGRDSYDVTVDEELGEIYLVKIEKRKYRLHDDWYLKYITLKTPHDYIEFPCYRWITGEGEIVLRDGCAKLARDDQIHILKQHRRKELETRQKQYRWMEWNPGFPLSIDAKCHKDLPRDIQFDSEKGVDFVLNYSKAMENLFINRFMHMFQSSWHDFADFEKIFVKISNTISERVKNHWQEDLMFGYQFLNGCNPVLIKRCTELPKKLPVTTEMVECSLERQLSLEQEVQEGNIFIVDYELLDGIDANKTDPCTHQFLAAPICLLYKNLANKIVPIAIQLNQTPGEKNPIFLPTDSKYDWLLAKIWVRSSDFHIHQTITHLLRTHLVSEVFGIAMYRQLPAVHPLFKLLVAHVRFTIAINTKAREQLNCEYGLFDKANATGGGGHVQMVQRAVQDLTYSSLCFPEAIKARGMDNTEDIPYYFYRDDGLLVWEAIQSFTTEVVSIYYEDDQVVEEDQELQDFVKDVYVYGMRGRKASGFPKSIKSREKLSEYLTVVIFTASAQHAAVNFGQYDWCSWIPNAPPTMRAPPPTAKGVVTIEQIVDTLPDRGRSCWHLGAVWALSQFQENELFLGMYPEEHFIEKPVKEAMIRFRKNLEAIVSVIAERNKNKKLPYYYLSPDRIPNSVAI
# Protocol: (§1) As stated previously, the novel compounds of the formula I are inhibitors of the enzyme 5-LO.
# c) An in vivo system involving measuring the effects of a test compound administered orally against the liberation of LTB4 induced by zymosan within an air pouch generated within the subcutaneous tissue of the back of male rats. The rats are anaesthetised and air pouches are formed by the injection of sterile air (20 ml). A further injection of air (10 ml) is similarly given after 3 days. At 6 days after the initial air injection the test compound is administered (usually orally as the suspension produced when a solution of the test compound in dimethylsulphoxide is added to hydroxypropylmethylcellulose), followed by the intrapouch injection of zymosan (1 ml of a 1% suspension in physiological saline). After 3 hours the rats are killed, the air pouches are lavaged with physiological saline, and the specific radioimmunoassay described above is used to assay LTB4 in the washings. This test provides an indication of inhibitory effects against 5-LO in an inflammatory milieu.
# [2] = target: T2, 5-LO (Homo sapiens, UniProt P09917); assay: Test a) in vitro human blood assay, A23187 challenge, LTB4 radioimmunoassay; assay type: cell-based; details: heparinised human blood
# T2 construct: incubating a test compound with heparinised human blood, prior to challenge with the calcium ionphore A23187; endogenous in cells; host or cells: blood cells in heparinised human blood
# T2 sequence (P09917 1-674): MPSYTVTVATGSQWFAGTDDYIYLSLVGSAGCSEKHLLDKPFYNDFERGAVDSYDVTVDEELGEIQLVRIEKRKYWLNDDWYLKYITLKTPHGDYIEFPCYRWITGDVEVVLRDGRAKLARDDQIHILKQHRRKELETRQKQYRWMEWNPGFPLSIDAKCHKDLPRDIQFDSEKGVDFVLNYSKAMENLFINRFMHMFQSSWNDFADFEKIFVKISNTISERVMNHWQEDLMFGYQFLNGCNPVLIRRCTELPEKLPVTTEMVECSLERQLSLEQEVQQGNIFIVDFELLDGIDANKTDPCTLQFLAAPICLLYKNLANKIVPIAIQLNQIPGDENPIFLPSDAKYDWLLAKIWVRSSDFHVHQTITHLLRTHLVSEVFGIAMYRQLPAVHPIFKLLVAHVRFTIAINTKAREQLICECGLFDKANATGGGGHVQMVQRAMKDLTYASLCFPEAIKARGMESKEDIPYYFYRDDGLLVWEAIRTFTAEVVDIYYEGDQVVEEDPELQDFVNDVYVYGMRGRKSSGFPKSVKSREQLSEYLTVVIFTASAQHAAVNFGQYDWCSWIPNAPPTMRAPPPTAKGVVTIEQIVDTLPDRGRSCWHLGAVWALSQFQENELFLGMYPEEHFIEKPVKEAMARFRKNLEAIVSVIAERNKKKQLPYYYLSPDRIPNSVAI
# Protocol: as §1
# a) An in vitro assay system involving incubating a test compound with heparinised human blood, prior to challenge with the calcium ionphore A23187 and then indirectly measuring the inhibitory effects on 5-LO by assaying the amount of LTB4 using specific radioimmunoassays described by Carey and Forder (Prostaglandins, Leukotrienes Med., 1986, 22, 57; Prostaglandins, 1984, 28, 666; Brit. J. Pharmacol., 1985, 84, 34P) which involve the use of a protein-LTB4 conjugate produced using the procedure of Young et alia (Prostaglandins, 1983, 26(4), 605-613). The effects of a test compound on the enzyme cyclooxygenase (which is involved in the alternative metabolic pathway for arachidonic acid and gives rise to prostaglandins, thromboxanes and related metabolites) may be measured at the same time using the specific radioimmunoassay for thromboxane B2 (TxB2) described by Carey and Forder (see above). This test provides an indication of the effects of a test compound against 5-LO and also cyclooxygenase in the presence of blood cells and proteins. It permits the selectivity of the inhibitory effect on 5-LO or cyclooxygenase to be assessed.
ED50 [1] [mg/kg],IC50 [2] [nM],Compound
1.5,4200,"COC1(c2cccc(Sc3ccc(S(=O)(=O)Nc4ccc(Cl)cn4)cc3)c2)CCOCC1 [Example 4, N-(5-chloropyrid-2-yl)-4[3-(4-methoxytetrahydropyran-4-yl)phenylthio]benzenesulphonamide]"
1.5,1000,"COC1(c2cccc(Sc3ccc(S(=O)(=O)Nc4nccs4)cc3)c2)CCOCC1 [Example 6, 4-[3-(4-methoxytetrahydropyran-4-yl)phenylthio]-N-(2-thiazolyl)benzenesulphonamide]"

# Reference: US5314891A, “Benzenesulphonamide derivatives” (Imperial Chemical Industries PLC, priority 1991, dated 1994)
